Tests used:
SHIP-1 = SHIP-1 gene and protein expression in tumors of HPC mice; format: in vivo, mouse; settings: API 25 mg/kg IP 3 times per week for 3-4 weeks, vs vehicle
Protocol: Earlier studies have shown the anti-tumor activity of API in pre-clinical experimental models of cancer^41, 62-68. The inventors have reported that API increased survival and reduced tumor growth in a heterotopic (H) mouse model of PC (HPC)^55. To investigate if API targets miR-155 and regulates SHIP-1 in the TME of an HPC mouse model, HPC mice were treated with API at a dose of 25 mg/kg (IP) 3 times per week for 3-4 weeks.
All female C57BL/6 mice (6-8 weeks of age) described in this study were purchased from Envigo (Indianapolis, IN, USA) and were acclimatize for one week in a pathogen-free animal facility (University of South Florida (USF) vivarium) before injections with PC cells. To generate heterotopic pancreatic cancer (HPC) models, mice were subcutaneously injected with 1.5×10^5 murine Panc02 (HPC mice) or 5×10^6 murine UN-KC-6141 cells (KC-HPC mice), in sterile 1× phosphate buffer saline (PBS), in the lower ventral abdomen, while control (CTRL) mice received sterile 1×PBS. […]
Isolation of total RNA from digested pancreatic tumors and BM cells was performed using a RNeasy Mini Kit (Qiagen), according to the manufacturer's instructions. RT-PCR of quantified and normalized total RNA was performed using a High-Capacity cDNA RT Kit with an RNase Inhibitor (Applied Biosystems), according to the manufacturer's instructions. […]

UN-KC-6141 cells = experiment: Apoptosis by flow cytometry (Annexin V and PI), UN-KC-6141; format: cell-based, mouse; settings: API 10, 20, 30, 40, 50 μM, 24 h
Protocol: Panc02 and UN-KC-6141 cells were seeded in 6-well plates allowed to grow to 50-60% confluency. Cells were then treated with API at a dose-dependent concentration (10, 20, 30, 40, 50 μM) or DMSO (1%) as vehicle control and incubated for 24 h at 37° C. in a humidified atmosphere of 5% CO2. Cells were collected and stained with a FITC Annexin V Apoptosis Detection Kit I (BD Bioscience, San Jose, CA, USA) according to the manufacturer's instructions. Acquisition of samples was performed using a flow cytometer BD LSRII (BD Biosciences Immunocytometry Systems, San Jose, CA, USA). FlowJo v10.8 software (TreeStar Inc., Ashland, OR, USA) was used for data analysis.

O=c1cc(-c2ccc(O)cc2)oc2cc(O)cc(O)c12 [API, 40,5,7-Trihydroxyflavone, 5,7-Dihydroxy-2-(4-hydroxyphenyl)-4-benzopyrone]
SHIP-1 gene expression in tumor (SHIP-1): increased | SHIP-1 protein expression in tumor (SHIP-1): increased | apoptosis (Annexin V and PI) (UN-KC-6141 cells): induces apoptosis
